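Exposure lasted 48 hours, with cells grown in 96-well plates and compounds tested at five concentrations. The concentration for 50% growth inhibition is given as GI50.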 Calls of active or inactive are those of the source. Cut-off read from the data, not from the text of the source: active = GI50 up to about 1.1 µM and inactive = higher.
Experiments:
Assay in all cases: NCI-60 cell line screen, 48 h
KM12 = system: KM12
UACC-257 = system: UACC-257
EKVX = system: EKVX
SNB-75 = system: SNB-75
HCT-15 = system: HCT-15
A549 = system: A549
SK-MEL-5 = system: SK-MEL-5
CCRF-CEM = system: CCRF-CEM
CAKI-1 = system: CAKI-1
HOP-62 = system: HOP-62
OVCAR-5 = system: OVCAR-5
SNB-19 = system: SNB-19
K562 = system: K562
SF-268 = system: SF-268
OVCAR-8 = system: OVCAR-8
T47D = system: T47D
Malme-3M = system: Malme-3M
LOX IMVI = system: LOX IMVI
NCI/ADR-RES = system: NCI/ADR-RES
TK-10 = system: TK-10
HL-60 = system: HL-60
BT-549 = system: BT-549
HCT-116 = system: HCT-116
ACHN = system: ACHN
SR = system: SR
NCI-H522 = system: NCI-H522
MOLT-4 = system: MOLT-4
RPMI-8226 = system: RPMI-8226
Hs-578T = system: Hs-578T
SF-295 = system: SF-295
HOP-92 = system: HOP-92
RXF 393 = system: RXF 393
NCI-H226 = system: NCI-H226
UO-31 = system: UO-31
SK-MEL-28 = system: SK-MEL-28
786-0 = system: 786-0
A498 = system: A498
UACC-62 = system: UACC-62
NCI-H23 = system: NCI-H23
DU-145 = system: DU-145
MDA-MB-231 = system: MDA-MB-231
OVCAR-3 = system: OVCAR-3
IGROV-1 = system: IGROV-1
MDA-MB-435 = system: MDA-MB-435
PC-3 = system: PC-3
SW-620 = system: SW-620
M14 = system: M14
SK-OV-3 = system: SK-OV-3
COLO 205 = system: COLO 205
HT-29 = system: HT-29
HCC 2998 = system: HCC 2998
SK-MEL-2 = system: SK-MEL-2
OVCAR-4 = system: OVCAR-4
NCI-H460 = system: NCI-H460
U-251 = system: U-251
SF-539 = system: SF-539
MDA-N = system: MDA-N
SN12C = system: SN12C
MCF7 = system: MCF7

## COC(=O)n1c(=O)n(-c2ccccc2)c(=O)n1C(=O)Nc1ccccc1
KM12
  GI50: > 100 µM (inactive)
UACC-257
  GI50: > 100 µM (inactive)
EKVX
  GI50: > 100 µM (inactive)
SNB-75
  GI50: > 100 µM (inactive)
HCT-15
  GI50: > 100 µM
A549
  GI50: > 100 µM (inactive)
SK-MEL-5
  GI50: > 100 µM (inactive)
CCRF-CEM
  GI50: 96.2 µM (inactive)
CAKI-1
  GI50: > 100 µM (inactive)
HOP-62
  GI50: > 100 µM (inactive)
OVCAR-5
  GI50: > 100 µM (inactive)
SNB-19
  GI50: > 100 µM (inactive)
K562
  GI50: 51.3 µM (inactive)
SF-268
  GI50: > 100 µM (inactive)
OVCAR-8
  GI50: > 100 µM (inactive)
T47D
  GI50: > 100 µM (inactive)
Malme-3M
  GI50: > 100 µM (inactive)
LOX IMVI
  GI50: > 100 µM (inactive)
NCI/ADR-RES
  GI50: > 100 µM (inactive)
TK-10
  GI50: > 100 µM (inactive)
HL-60
  GI50: > 100 µM (inactive)
BT-549
  GI50: > 100 µM (inactive)
HCT-116
  GI50: > 100 µM (inactive)
ACHN
  GI50: > 100 µM (inactive)
SR
  GI50: > 100 µM (inactive)
NCI-H522
  GI50: > 100 µM (inactive)
MOLT-4
  GI50: > 100 µM (inactive)
RPMI-8226
  GI50: 96.4 µM (inactive)
Hs-578T
  GI50: > 100 µM (inactive)
SF-295
  GI50: > 100 µM (inactive)
HOP-92
  GI50: > 100 µM (inactive)
RXF 393
  GI50: > 100 µM (inactive)
NCI-H226
  GI50: > 100 µM (inactive)
UO-31
  GI50: > 100 µM (inactive)
SK-MEL-28
  GI50: > 100 µM (inactive)
786-0
  GI50: > 100 µM (inactive)
A498
  GI50: > 100 µM (inactive)
UACC-62
  GI50: > 100 µM (inactive)
NCI-H23
  GI50: > 100 µM (inactive)
DU-145
  GI50: > 100 µM (inactive)
MDA-MB-231
  GI50: > 100 µM (inactive)
OVCAR-3
  GI50: > 100 µM (inactive)
IGROV-1
  GI50: > 100 µM (inactive)
MDA-MB-435
  GI50: > 100 µM (inactive)
PC-3
  GI50: > 100 µM (inactive)
SW-620
  GI50: > 100 µM (inactive)
M14
  GI50: > 100 µM (inactive)
SK-OV-3
  GI50: > 100 µM (inactive)
COLO 205
  GI50: > 100 µM (inactive)
HT-29
  GI50: > 100 µM (inactive)
HCC 2998
  GI50: > 100 µM (inactive)
SK-MEL-2
  GI50: > 100 µM (inactive)
OVCAR-4
  GI50: 3.42 µM (inactive)
NCI-H460
  GI50: > 100 µM (inactive)
U-251
  GI50: > 100 µM (inactive)

## COC1(OC)N=C(N)C2(C#N)/C(=N/N(C)C)CC(C)C12C#N (centres undefined)
KM12
  GI50: > 100 µM (inactive)
SF-539
  GI50: > 100 µM (inactive)
UACC-257
  GI50: > 100 µM (inactive)
EKVX
  GI50: > 100 µM (inactive)
SNB-75
  GI50: 71.9 µM (inactive)
MDA-N
  GI50: > 100 µM (inactive)
HCT-15
  GI50: > 100 µM
A549
  GI50: > 100 µM (inactive)
SK-MEL-5
  GI50: > 100 µM (inactive)
CCRF-CEM
  GI50: > 100 µM (inactive)
CAKI-1
  GI50: > 100 µM (inactive)
HOP-62
  GI50: > 100 µM (inactive)
OVCAR-5
  GI50: > 100 µM (inactive)
SNB-19
  GI50: > 100 µM (inactive)
K562
  GI50: > 100 µM (inactive)
SF-268
  GI50: > 100 µM (inactive)
OVCAR-8
  GI50: > 100 µM (inactive)
T47D
  GI50: > 100 µM (inactive)
Malme-3M
  GI50: > 100 µM (inactive)
LOX IMVI
  GI50: > 100 µM (inactive)
NCI/ADR-RES
  GI50: > 100 µM (inactive)
TK-10
  GI50: > 100 µM (inactive)
HL-60
  GI50: > 100 µM (inactive)
HCT-116
  GI50: > 100 µM (inactive)
ACHN
  GI50: > 100 µM (inactive)
SR
  GI50: > 100 µM (inactive)
NCI-H522
  GI50: > 100 µM (inactive)
MOLT-4
  GI50: > 100 µM (inactive)
RPMI-8226
  GI50: > 10 µM (inactive)
Hs-578T
  GI50: > 100 µM (inactive)
SF-295
  GI50: > 100 µM (inactive)
HOP-92
  GI50: > 100 µM (inactive)
RXF 393
  GI50: > 100 µM (inactive)
NCI-H226
  GI50: > 100 µM (inactive)
UO-31
  GI50: > 100 µM (inactive)
SK-MEL-28
  GI50: > 100 µM (inactive)
SN12C
  GI50: > 100 µM (inactive)
786-0
  GI50: > 100 µM (inactive)
MCF7
  GI50: > 100 µM (inactive)
A498
  GI50: > 100 µM (inactive)
UACC-62
  GI50: > 100 µM (inactive)
NCI-H23
  GI50: > 100 µM (inactive)
DU-145
  GI50: > 100 µM (inactive)
MDA-MB-231
  GI50: > 100 µM (inactive)
IGROV-1
  GI50: > 100 µM (inactive)
MDA-MB-435
  GI50: > 100 µM (inactive)
PC-3
  GI50: > 100 µM (inactive)
SW-620
  GI50: > 100 µM (inactive)
M14
  GI50: > 100 µM (inactive)
SK-OV-3
  GI50: > 100 µM (inactive)
COLO 205
  GI50: > 100 µM (inactive)
HT-29
  GI50: > 100 µM (inactive)
HCC 2998
  GI50: > 100 µM (inactive)
SK-MEL-2
  GI50: > 100 µM (inactive)
U-251
  GI50: > 100 µM (inactive)

## CCCCNC(=S)N/C=C1\C(=O)Nc2ccccc2C1=O
KM12
  GI50: > 10 µM (inactive)
SF-539
  GI50: > 10 µM (inactive)
UACC-257
  GI50: > 10 µM (inactive)
EKVX
  GI50: > 10 µM (inactive)
HCT-15
  GI50: > 10 µM
A549
  GI50: > 10 µM (inactive)
CCRF-CEM
  GI50: > 10 µM (inactive)
CAKI-1
  GI50: > 10 µM (inactive)
HOP-62
  GI50: > 10 µM (inactive)
OVCAR-5
  GI50: > 10 µM (inactive)
SNB-19
  GI50: > 10 µM (inactive)
K562
  GI50: > 10 µM (inactive)
SF-268
  GI50: > 10 µM (inactive)
OVCAR-8
  GI50: > 10 µM (inactive)
T47D
  GI50: > 10 µM (inactive)
Malme-3M
  GI50: > 10 µM (inactive)
NCI/ADR-RES
  GI50: > 10 µM (inactive)
TK-10
  GI50: > 10 µM (inactive)
HL-60
  GI50: > 10 µM (inactive)
BT-549
  GI50: > 10 µM (inactive)
ACHN
  GI50: > 10 µM (inactive)
SR
  GI50: > 10 µM (inactive)
MOLT-4
  GI50: > 10 µM (inactive)
RPMI-8226
  GI50: > 10 µM (inactive)
SF-295
  GI50: > 10 µM (inactive)
HOP-92
  GI50: > 10 µM (inactive)
RXF 393
  GI50: > 10 µM (inactive)
NCI-H226
  GI50: > 10 µM (inactive)
UO-31
  GI50: > 10 µM (inactive)
SK-MEL-28
  GI50: > 10 µM (inactive)
SN12C
  GI50: > 10 µM (inactive)
786-0
  GI50: > 10 µM (inactive)
MCF7
  GI50: > 10 µM (inactive)
A498
  GI50: > 10 µM (inactive)
UACC-62
  GI50: > 10 µM (inactive)
NCI-H23
  GI50: > 10 µM (inactive)
MDA-MB-231
  GI50: > 10 µM (inactive)
OVCAR-3
  GI50: > 10 µM (inactive)
IGROV-1
  GI50: > 10 µM (inactive)
MDA-MB-435
  GI50: > 10 µM (inactive)
PC-3
  GI50: > 10 µM (inactive)
SW-620
  GI50: > 10 µM (inactive)
M14
  GI50: > 10 µM (inactive)
COLO 205
  GI50: > 10 µM (inactive)
HT-29
  GI50: > 10 µM (inactive)
HCC 2998
  GI50: > 10 µM (inactive)
OVCAR-4
  GI50: > 10 µM (inactive)
NCI-H460
  GI50: > 10 µM (inactive)
U-251
  GI50: > 10 µM (inactive)

— ChEMBL document CHEMBL1201862, “PubChem BioAssay data set” (2004)
